According to patent publication US10745401B2, “Condensed lactam derivative” (Sumitomo Dainippon Pharma Co., Ltd., priority 2018, dated 2020):

Experiments:
human D2 receptor = human D2 receptor (Homo sapiens (Human), UniProt P14416); assay: Test 1: binding activity for human D2 receptor ([3H]Spiperone, CHO cell membrane fraction); details: human D2 receptor, [3H]Spiperone
Protocol: (§1) Test 1: Evaluation of Binding Activity for Human 5-HT1A Receptor, Human 5-HT2A Receptor, and Human D2 Receptor
(§2) Binding affinity of the present compound for human 5-HT1A receptor, human 5-HT2A receptor, and human D2 receptor was measured by the following procedures.
(§3) Each mixture was incubated at room temperature for 60 minutes. Then, the mixture was added quickly on a glassfiber filter plate (Multiscreen FB, Millipore, Inc.) coated with 0.3% aqueous polyethylenimine, and vacuum-filtered. Radioactivity remaining on the filter was measured with a liquid scintillation counter (PerkinElmer, Inc.). Binding inhibition rate was calculated from the following formula.
(§4) Ki of each compound was calculated from the following formula. Binding inhibition constant (Ki)=IC50/(1+S/Kd) wherein S is concentration of ligand; Kd is a binding dissociation constant of ligand to membrane, which is calculated from a saturated binding experiment conducted with the same cell membrane. A small Ki value means strong binding ability to a receptor.

human 5-HT1A receptor [1] = target: T1, human 5-HT1A receptor (Homo sapiens (Human), UniProt P08908); assay: Test 2: agonist activity for human 5-HT1A receptor ([35S]GTPγS binding); format: biochemical; details: for Emax at 10 µM: agonist activity in the presence of 10 μM of compound, relative to 100 μmol/L 5-HT; for EC50: [35S]GTPγS binding, concentration at which half the activity of Emax was obtained
Protocol: Test 2: Evaluation of Agonist Activity for Human 5-HT1A Receptor
CHO cell membrane fraction in which human 5-HT1A receptor was expressed as used in Test 1 was purchased. To a buffer containing guanosine diphosphate were added a test compound dissolved in DMSO, each receptor membrane sample diluted with buffer, and [^35S] Guanosine 5′-O-[gamma-thio]triphosphate (GTPγS). The mixture was incubated at room temperature for 60 minutes. Then, the mixture was added quickly on a glassfiber filter plate (Multiscreen FB, Millipore, Inc.), and vacuum-filtered. Radioactivity remaining on the […] was measured with a liquid scintillation counter. Agonist activity was calculated from the following formula.

[2] = Test 4: metabolic stability test in human hepatic microsome; format: in vitro ADME; details: 0.1 mg/mL microsome, 0.1 μmol/L compound, 37° C., 30 minutes
Protocol: Test 4: Metabolic Stability Test in Human Hepatic Microsome
The stability of the present compound in human hepatic microsome metabolism was evaluated as mentioned below. Human hepatic microsome was obtained from Xenontech. Human hepatic microsome, NADPH, and each test compound were mixed in 25 mmol/L phosphate buffer solution (pH 7.4) to reach the following concentrations as shown below, and the mixture was incubated at 37° C. for 30 minutes. • Human hepatic microsome: 0.1 mg/mL • NAPDH: 3.2 mmol/L • Test compound: 0.1 μmol/L
The residual ratio of the test compound in each sample after 30 minutes was measured by LC-MS, and the metabolic stability in human hepatic microsome was calculated from the following formula. Metabolic stability in human hepatic microsome (mL/min/mg protein)=−LN (residual ratio)/30/0.1

hERG channel = hERG channel (Homo sapiens (Human), UniProt Q12809); assay: Test 6-1: inhibitory activity for hERG channel (auto patch clamp, Qpatch); format: cell-based; details: whole cell auto patch clamp, hERG-CHO cells; read-out: hERG inhibition IC50
Protocol: Test 6-1: Evaluation of Inhibitory Activity for hERG Channel
Inhibitory activity of the present compound for hERG channel was measured by whole cell patch clamp method with an auto patch clamp system using CHO cells in which hERG channel involved in human rapidly activating delayed rectifier potassium current (IKr) was forcibly expressed.
hERG-CHO cells purchased from ChanTest Cop. were cultured in a CO2 incubator at 37° C., and dissociated from a flask with trypsin shortly before the measurement of hERG current, to prepare a cell suspension.
Extracellular fluid: 2 mmol/L CaCl2, 1 mmol/L MgCl2, 10 mmol/L HEPES, 4 mmol/L KCl, 145 mmol/L NaCl, 10 mmol/L Glucose
Intracellular fluid: 5.4 mmol/L CaCl2, 1.8 mmol/L MgCl2, 10 mmol/L HEPES, 31 mmol/L KOH, 10 mmol/L EGTA, 120 mmol/L KCl, 4 mmol/L Na2-ATP
Test compound solution: Test compound was dissolved in DMSO to reach the concentration of 2 mmol/L or 20 mmol/L, in order to prepare a test compound solution. […] (Measurement of Current Value and Data Analysis)
The cell suspension, the extracellular fluid, the intracellular fluid, and the measurement plate were set in the auto patch clamp system, and hERG current was measured by whole cell patch clamp method. […] Each pulse interval was 15 seconds. The data analysis was carried out with Qpatch Assay Software (Biolin Scientific). The test was carried out by applying incrementally 4 concentrations of each test compound, and the average of the maximum peak tail currents which were obtained from the last 3 stimulations in each concentration was determined as the evaluated data. Based on the current inhibition rate for a pre-applied current at each concentration of each test compound, IC50 value was calculated by Hill equation with the software.

human 5-HT1A receptor [3] = target: T1, human 5-HT1A receptor; assay: Test 1: binding activity for human 5-HT1A receptor ([3H]8-OH-DPAT, CHO cell membrane fraction)
Protocol: as §1, §2, §3
as §4, with “IC50 value was calculated by Hill analysis (Physiology, 1910, 40, 190-200). Ki of” for “Ki of”

human D2 receptor, sequence (P14416 whole entry): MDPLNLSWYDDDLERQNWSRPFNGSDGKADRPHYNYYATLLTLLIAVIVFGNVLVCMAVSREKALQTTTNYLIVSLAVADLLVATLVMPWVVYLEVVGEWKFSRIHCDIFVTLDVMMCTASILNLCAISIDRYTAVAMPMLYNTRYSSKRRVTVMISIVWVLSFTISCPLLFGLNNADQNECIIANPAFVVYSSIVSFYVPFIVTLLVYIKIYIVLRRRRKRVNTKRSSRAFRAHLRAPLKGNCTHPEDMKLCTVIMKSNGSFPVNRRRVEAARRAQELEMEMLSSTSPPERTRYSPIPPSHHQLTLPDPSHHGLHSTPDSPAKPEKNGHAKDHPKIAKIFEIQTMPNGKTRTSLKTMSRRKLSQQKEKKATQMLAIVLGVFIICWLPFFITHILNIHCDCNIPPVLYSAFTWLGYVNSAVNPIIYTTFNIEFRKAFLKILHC
T1 sequence (P08908 whole entry): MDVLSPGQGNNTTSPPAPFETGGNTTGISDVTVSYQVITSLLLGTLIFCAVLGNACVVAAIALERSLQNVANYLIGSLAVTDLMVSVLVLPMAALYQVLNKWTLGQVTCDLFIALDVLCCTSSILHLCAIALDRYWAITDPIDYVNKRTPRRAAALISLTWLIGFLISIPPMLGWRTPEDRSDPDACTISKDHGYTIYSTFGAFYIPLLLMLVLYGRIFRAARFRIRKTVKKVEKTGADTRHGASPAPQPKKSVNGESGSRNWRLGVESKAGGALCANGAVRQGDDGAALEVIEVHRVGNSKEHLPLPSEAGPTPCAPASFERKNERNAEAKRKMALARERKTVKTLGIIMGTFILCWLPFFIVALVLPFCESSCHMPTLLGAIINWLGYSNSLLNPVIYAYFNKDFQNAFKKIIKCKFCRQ
hERG channel, sequence (Q12809 whole entry): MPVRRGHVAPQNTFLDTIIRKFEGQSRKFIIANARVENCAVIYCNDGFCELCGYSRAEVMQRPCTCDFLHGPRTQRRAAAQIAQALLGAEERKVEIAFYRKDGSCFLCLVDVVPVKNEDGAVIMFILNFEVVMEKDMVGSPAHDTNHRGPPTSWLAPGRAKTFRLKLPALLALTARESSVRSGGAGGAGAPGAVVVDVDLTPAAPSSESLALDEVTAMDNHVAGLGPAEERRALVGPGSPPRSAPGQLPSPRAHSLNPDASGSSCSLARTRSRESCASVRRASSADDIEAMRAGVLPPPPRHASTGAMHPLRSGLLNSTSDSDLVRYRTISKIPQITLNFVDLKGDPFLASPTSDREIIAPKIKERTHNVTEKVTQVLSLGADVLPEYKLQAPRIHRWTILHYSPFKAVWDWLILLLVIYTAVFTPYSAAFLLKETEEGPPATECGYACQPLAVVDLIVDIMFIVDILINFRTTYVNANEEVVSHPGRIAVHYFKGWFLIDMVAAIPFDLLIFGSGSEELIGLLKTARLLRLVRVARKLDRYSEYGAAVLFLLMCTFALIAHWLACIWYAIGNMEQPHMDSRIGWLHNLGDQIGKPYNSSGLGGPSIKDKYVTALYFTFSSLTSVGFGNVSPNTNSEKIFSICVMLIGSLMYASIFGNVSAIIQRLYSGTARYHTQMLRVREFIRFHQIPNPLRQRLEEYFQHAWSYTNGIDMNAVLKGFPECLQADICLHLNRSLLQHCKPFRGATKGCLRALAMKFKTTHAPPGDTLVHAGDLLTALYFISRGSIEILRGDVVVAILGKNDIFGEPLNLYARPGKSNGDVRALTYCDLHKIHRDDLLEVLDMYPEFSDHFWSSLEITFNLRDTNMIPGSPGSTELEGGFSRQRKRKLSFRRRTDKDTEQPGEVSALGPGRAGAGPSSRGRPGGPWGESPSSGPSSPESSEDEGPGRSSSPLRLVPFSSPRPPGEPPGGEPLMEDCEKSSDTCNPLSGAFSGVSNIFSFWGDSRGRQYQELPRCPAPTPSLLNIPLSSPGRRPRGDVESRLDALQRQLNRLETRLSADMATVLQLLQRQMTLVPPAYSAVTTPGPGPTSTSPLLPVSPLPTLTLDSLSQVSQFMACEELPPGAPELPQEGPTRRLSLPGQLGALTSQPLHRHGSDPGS

Ki (human D2 receptor) [nM]	Emax at 10 µM (human 5-HT1A receptor [1]) [%]	Metabolic stability in human hepatic microsome [2] [mL/min/mg protein]	Ki (human 5-HT1A receptor [3]) [nM]	EC50 (human 5-HT1A receptor [1]) [nM]	SMILES	IC50 (hERG channel) [nM]
601	60	<0.01			Cn1ccc2c1CCCN(CCN1CCN(c3noc4ccccc34)CC1)C2=O [Example 109, 5-{2-[4-(1,2-Benzoisoxazol-3-yl)piperazin-1-yl]ethyl}-1-methyl-5,6,7,8-tetrahydropyrrolo[3,2-c]azepin-4 (H)-one]	11300
853	38	0.056			O=C1c2oc(C3CC3)nc2CCN1CCN1CCC(c2noc3ccccc23)CC1 [Example 68]	< 270
402	31		26.5	1040	O=C1c2ncccc2CCC1CCN1CCN(c2noc3cc(F)ccc23)CC1 (stereo not shown) [Example 143]	800
954	59				O=c1c2cnc(C(F)(F)F)cc2ccn1CCN1CCC(c2noc3ccccc23)CC1 [Example 84]	
170	43	0.13	20.2	844	O=C1c2cnn(C3CC3)c2CCN1CCN1CCN(c2nsc3ccccc23)CC1 [Example 160]	
1400	40	0.726	10.9	7.85	O=c1c2cnc(C3CC3)nc2ccn1CCN1CCN(c2nsc3ccccc23)CC1 [Example 182]	
	16	<0.05			O=C1c2cccnc2CCN1CCN1CCN(c2noc3ccccc23)CC1 [Example 153, 6-{2-[4-(1,2-Benzoisoxazol-3-yl)piperazin-1-yl]ethyl}-7,8-dihydro-1,6-naphthyridin-5(6H)-one]	7100
305	67		2.64	7.34	CCc1nc2c(o1)C(=O)N(CCN1CCN(c3nsc4ccccc34)CC1)CC2 [Example 71]	
2580	62	0.143	7.91	77.9	Cc1ncc2c(=O)n(CCN3CCN(c4nsc5ccccc45)CC3)ccc2n1 [Example 95]	
1920	44		44.2	62.9	O=C1c2cn[nH]c2CCN1CCN1CCN(c2nsc3ccccc23)CC1 [Example 169]	
105	35		3.9	63.9	CC1(C)CN(CCN2CCC(c3noc4cc(F)ccc34)CC2)C(=O)c2ncccc21 [Example 119]	
276	5		73.1	550	Cc1ccc2c(C3CCN(CCN4CCc5cccnc5C4=O)CC3)noc2c1 [Example 118]	
	50	0.064			O=c1c2ncccc2ccn1CCN1CCN(c2nsc3ccccc23)CC1 [Example 8]	2000
216	17	<0.05	203	6180	O=C1c2cnn(C3CC3)c2CCN1CCN1CCC(c2noc3ccccc23)CC1 [Example 161]	
537	23	<0.05	24	121	CC(CN1CCC(c2noc3cc(F)ccc23)CC1)N1CCc2cccnc2C1=O (stereo not shown) [Example 122]	
625	33	<0.05	83.2	35.9	O=C1c2cccnc2CCN1CCN1CCC(c2noc3ccccc23)CC1 [Example 128]	
210	51		3.48	4.42	Cn1nc2c(c1Br)C(=O)N(CCN1CCC(c3noc4ccccc34)CC1)CC2 [Example 74]	
574	37	<0.01			Cn1cc2c(n1)C(=O)N(CCN1CCC(c3noc4ccccc34)CC1)CCC2 [Example 48]	1200
327	12	0.113	217	921	CC(C)n1ncc2c1CCN(CCN1CCN(c3nsc4ccccc34)CC1)C2=O [Example 158]	
6940	58		6.35	86.5	O=C1c2[nH]cnc2CCCN1CCN1CCN(c2nsc3ccccc23)CC1 [Example 100, 5-{2-[4-(1,2-Benzoisothiazol-3-yl)piperazin-1-yl]ethyl}-5,6,7,8-tetrahydroimidazo[4,5-c]azepin-4(3H)-one]	
384	72		3.33	8.2	O=c1c2cnc(C(F)(F)F)cc2ccn1CCN1CCN(c2nsc3ccccc23)CC1 [Example 172]	
1210	51		9.9	16	Cc1cc2c(cn1)C(=O)N(CCN1CCN(c3noc4ccccc34)CC1)CC2(C)C [Example 86]	
689	52	<0.01			Cn1cc2c(n1)CCN(CCN1CCC(c3noc4ccccc34)CC1)C2=O [Example 17]	1000
> 10000	53	<0.05			O=C1c2nc(Cl)ccc2CCN1CCN1CCN(c2noc3ccccc23)CC1 [Example 144]	

SMILES	Ki (human D2 receptor) [nM]	Emax at 10 µM (human 5-HT1A receptor [1]) [%]	Metabolic stability in human hepatic microsome [2] [mL/min/mg protein]	Ki (human 5-HT1A receptor [3]) [nM]	EC50 (human 5-HT1A receptor [1]) [nM]	IC50 (hERG channel) [nM]
Cc1ccc2c(n1)C(=O)N(CCN1CCC(c3noc4ccccc34)CC1)CC2 [Example 186]			0.095			
Cn1nc(Br)c2c1CCN(CCN1CCC(c3noc4ccccc34)CC1)C2=O [Example 70]	867	50		14.1	79.3	
Cc1ncc2c(=O)n(CCN3CCC(c4noc5ccccc45)CC3)ccc2n1 [Example 194, 6-{2-[4-(1,2-Benzoisoxazol-3-yl)piperidin-1-yl]ethyl}-2-methylpyrido[4,3-d]pyrimidin-5(6H)-one]			<0.05			4900
Cc1ccc2c(n1)C(=O)N(CCN1CCC(c3noc4ccccc34)CC1)CC2 [Example 187]			<0.05			
Cn1nc2c(c1Br)C(=O)N(CCN1CCN(c3nsc4ccccc34)CC1)CC2 [Example 73]	234			0.97		
